Assay results as given in ChEMBL document CHEMBL1137623, “Synthesis and in-vitro biological activity of macrocyclic urea Chk1 inhibitors” (Bioorg Med Chem Lett, 2007).
pEC50, pIC50: −log10 of the molar value.

Tests used:
[1] = target: T1, Serine/threonine-protein kinase Chk1 (Homo sapiens, UniProt O14757); assay: Inhibition of Chk1 enzyme by radiometric assay
T1 sequence (O14757 whole entry): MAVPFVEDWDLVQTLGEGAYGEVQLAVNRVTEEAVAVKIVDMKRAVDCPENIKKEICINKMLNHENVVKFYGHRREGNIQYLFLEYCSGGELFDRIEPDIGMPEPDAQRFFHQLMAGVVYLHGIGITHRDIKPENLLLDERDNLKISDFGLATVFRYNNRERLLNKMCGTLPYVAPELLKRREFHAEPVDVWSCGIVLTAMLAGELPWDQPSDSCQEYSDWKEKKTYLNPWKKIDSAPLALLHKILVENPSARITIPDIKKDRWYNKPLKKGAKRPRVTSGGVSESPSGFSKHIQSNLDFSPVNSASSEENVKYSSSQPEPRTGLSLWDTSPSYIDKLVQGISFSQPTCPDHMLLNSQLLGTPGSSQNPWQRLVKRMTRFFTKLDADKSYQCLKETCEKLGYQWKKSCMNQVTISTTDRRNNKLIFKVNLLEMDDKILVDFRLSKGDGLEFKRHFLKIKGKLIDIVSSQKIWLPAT

[2] = test system: HeLa; assay: Antiproliferative activity against human HeLa cells by MTS assay; assay type: functional, cell-based
[3] = test system: NCI-H1299; assay: Cell cycle arrest in human NCI-H1299 cells assessed as accumulation at G2/M phase by FACS; assay type: functional, cell-based

Structure (SMILES) | pIC50 [1] | pEC50 [2] | pEC50 [3] | pIC50 [3]
CC(=O)Nc1ccc2c(c1)NC(=O)Nc1cnc(C#N)c(n1)OCCCCCO2 | 8.10 | – | – | –
COc1ccc2c(c1)NC(=O)Nc1cnc(C#N)c(n1)OCC/C=C\CO2 | 7.43 | < 4.23 | < 5.00 | –
N#Cc1ncc2nc1OCCCCCOc1ccc(OCCCCN3CCOCC3)cc1NC(=O)N2 | 8.52 | – | – | –
COc1ccc(NC(C)=O)cc1NC(=O)Nc1cnc(C#N)cn1 | 7.66 | – | – | –
N#Cc1ncc2nc1OCC/C=C\COc1ccc(OCCCCN3CCOCC3)cc1NC(=O)N2 | 8.22 | – | – | –
N#Cc1ncc2nc1OCCCCCOc1ccc(Cl)cc1NC(=O)N2 | 7.96 | 4.24 | < 5.00 | –
N#Cc1ncc2nc1OCCCCCOc1ccc(OCCCN3CCOCC3)cc1NC(=O)N2 | 8.15 | 5.39 | < 5.00 | –
CCOc1ccc(OCC)c(NC(=O)Nc2cnc(C#N)cn2)c1 | 7.51 | – | – | –
CC(C)(C)[Si](Oc1ccc2c(c1)NC(=O)Nc1cnc(C#N)c(n1)OCC/C=C\CO2)(c1ccccc1)c1ccccc1 | < 5.00 | – | – | –
CN(C)CCOc1ccc2c(c1)NC(=O)Nc1cnc(C#N)c(n1)OCC/C=C\CO2 | 7.82 | 4.52 | < 5.00 | –
N#Cc1ncc2nc1OCC/C=C\COc1ccc(OCCO)cc1NC(=O)N2 | 7.89 | < 4.23 | < 5.00 | –
N#Cc1ncc2nc1OCCCCOc1ccc(Cl)cc1NC(=O)N2 | – | < 4.23 | < 5.00 | –
N#Cc1ncc2nc1OCC/C=C\COc1ccc(CCOC3CCCCO3)cc1NC(=O)N2 (stereo not drawn) | 6.97 | – | < 5.00 | –
N#Cc1ncc2nc1OCC/C=C\COc1ccc(CCCO)cc1NC(=O)N2 | 7.16 | < 4.23 | < 5.00 | –
Cc1ccc2c(c1)NC(=O)Nc1cnc(C#N)c(n1)OCCCCCO2 | 8.10 | – | – | –
N#Cc1ncc2nc1OCCCCOc1ccc(OCCCCCN3CCCOC3)cc1NC(=O)N2 | 8.52 | < 4.23 | – | –
Cc1ccc2c(c1)NC(=O)Nc1cnc(C#N)c(n1)OCC/C=C\CO2 | 7.82 | < 4.23 | < 5.00 | –
N#Cc1ncc2nc1OCC/C=C\COc1ccc(CCCOC3CCCCO3)cc1NC(=O)N2 (stereo not drawn) | 7.04 | < 4.23 | < 5.00 | –
CC(=O)Nc1ccc2c(c1)NC(=O)Nc1cnc(C#N)c(n1)OCC/C=C\CO2 | 7.80 | 4.40 | – | < 5.00
CCOc1ccc2c(c1)NC(=O)Nc1cnc(C#N)c(n1)OCCCCCO2 | 7.26 | < 4.23 | < 5.00 | –
N#Cc1ncc2nc1OCC/C=C\COc1ccc(Br)cc1NC(=O)N2 | 7.92 | 4.53 | < 5.00 | –

Structure (SMILES) | pIC50 [1] | pEC50 [2] | pEC50 [3] | pIC50 [3]
N#Cc1ncc2nc1OCC/C=C\COc1ccc(Cl)cc1NC(=O)N2 | 8.00 | 4.92 | < 5.00 | –
N#Cc1ncc2nc1OCCCCCOc1ccc(OCCCCCN3CCOCC3)cc1NC(=O)N2 | 8.52 | 5.05 | < 5.00 | –
N#Cc1ncc2nc1OCCCCOc1ccc(OCCCCN3CCOCC3)cc1NC(=O)N2 | 8.40 | < 4.23 | – | –
N#Cc1ncc2nc1OCC/C=C\COc1ccc(OCCOC3CCCCO3)cc1NC(=O)N2 (stereo not drawn) | 7.72 | 4.51 | < 5.00 | –
CCOc1ccc2c(c1)NC(=O)Nc1cnc(C#N)c(n1)OCC/C=C\CO2 | 7.72 | < 4.23 | < 5.00 | –
N#Cc1ncc2nc1OCCCCCOc1ccc(CCO)cc1NC(=O)N2 | 7.41 | < 4.23 | < 5.00 | –
N#Cc1ncc2nc1OCC/C=C\COc1ccc(O)cc1NC(=O)N2 | 7.47 | < 4.23 | < 5.00 | –
N#Cc1ncc2nc1OCC/C=C\COc1ccc(CCO)cc1NC(=O)N2 | 7.01 | – | < 5.00 | –
N#Cc1ncc2nc1OCCCCCOc1ccccc1NC(=O)N2 | 7.80 | < 4.23 | < 5.00 | –
N#Cc1ncc2nc1OC/C=C\COc1ccc(OCCCCCN3CCCOC3)cc1NC(=O)N2 | 8.70 | < 4.23 | – | –
N#Cc1ncc2nc1OCC/C=C\COc1ccc(OCCCN3CCOCC3)cc1NC(=O)N2 | 8.30 | < 4.23 | < 5.00 | –
N#Cc1ncc2nc1OC/C=C\COc1ccc(OCCCCN3CCOCC3)cc1NC(=O)N2 | 8.40 | 5.12 | – | –
N#Cc1ncc2nc1OC/C=C\COc1ccc(Cl)cc1NC(=O)N2 | 8.30 | < 4.23 | < 5.00 | –
N#Cc1ncc2nc1OCCCCCOc1ccc(Br)cc1NC(=O)N2 | 7.92 | 4.28 | < 5.00 | –
N#Cc1ncc2nc1OCCCCCOc1ccc(CCCO)cc1NC(=O)N2 | 7.62 | < 4.23 | < 5.00 | –
N#Cc1ncc2nc1OC/C=C\COc1ccc(OCCCN3CCOCC3)cc1NC(=O)N2 | 8.40 | < 4.23 | – | –
COc1ccc2c(c1)NC(=O)Nc1cnc(C#N)c(n1)OCCCCCO2 | 7.60 | < 4.23 | < 5.00 | –
N#Cc1ncc2nc1OCCCCOc1ccc(OCCCN3CCOCC3)cc1NC(=O)N2 | 8.70 | < 4.23 | – | –
N#Cc1ncc2nc1OCC/C=C\COc1ccccc1NC(=O)N2 | 7.92 | 4.40 | < 5.00 | –
N#Cc1ncc2nc1OCCCCCOc1ccc(OCCO)cc1NC(=O)N2 | 7.96 | < 4.23 | < 5.00 | –
N#Cc1ncc2nc1OCC/C=C\COc1ccc(OCCCCCN3CCOCC3)cc1NC(=O)N2 | 8.30 | 5.28 | < 5.00 | –
